# Laboratory results reported in patent US20040077634A1, “Treatment of diseases characterized by excessive or insufficient cell death” (priority 2001, published 2004).
# Experiments:
# [1] = tested on: MCF-casp3 cells; experiment: TNF-induced cell death of MCF-casp3 cells
# Description: (§1) The ability of compound f to inhibit cell death was examined in MCF-neo and MCF-casp3 cells. […] To analyse the mechanism of the action of compound f in alive cells, MCF-casp3 cells were treated with TNF (5 ng/ml) in the presence of 50 μM compound f and the activity of caspase-3-like proteases was measured by a DEVDase enzyme assay.
# [2] = tested on: caspase-3-like proteases in MCF-casp3 cells; experiment: TNF-induced DEVDase activity in MCF-casp3 cells; type: cell-based; details: TNF 5 ng/ml, 50 μM
# Description: as §1
# [3] = tested on: MCF-neo cells; experiment: TNF-induced cell death of MCF-neo cells; type: cell-based
# Description: as §1
# [4] = tested on: DEVDase (caspase-3-like protease); experiment: Inhibition of DEVDase in cytochrome c/dATP-activated Hela cytosolic extract (method 1); type: biochemical
# Description: Hela cells are grown in large petri dishes until subconfluency. Cells are then harvested and washed in PBS. The cell pellet is resuspended in equal volumes of ice-cold isotonic lysisbuffer (SCA; 20 mM Hepes-KOH pH 7.5, 10 mM KCl, 1.5 mM MgCl2, 1 mM EDTA, 1 mM EGTA, 250 mM sucrose, 1 mM DTT, 10 μg/ml aprotinin, 1 μg/ml leupeptin, 1 μg/ml pepstatin A, 100 μg/ml peta-block), incubated on ice for 30 min and lysed by approx. 30 strokes of a dounce homogenizer. The lysate is then centrifuged at 750 g for 10 min, and the supernatant thereof at 10,000 g for 10 min and at 20,000 g for 30 min. The clarified supernatant is removed carefully and stored in aliquots at −80° C. Activation of endogene caspases is induced by addition of 1 mM dATP and 1 μM horse heart cytochrome c to cytosolic extract (protein concentration; 5-10 mg/ml) in the presence of DEVD-AFC and the compound (final concentration 100 μM). Activated DEVD'ases (AFC release) is measured by fluorometry in 96-well plates at 37° C. After end measurements 2× LSB-Mechaptoethanol are added to the samples for assessment of caspase processing by immunoblot analysis. Percent inhibition is calculated as follows: [formula]
# [5] = target: T1, recombinant caspase-3 (Homo sapiens, UniProt P42574); experiment: Recombinant caspase-3 activity, cleavage of DEVD-AFC; type: biochemical; details: 25 to 100 μM; DEVD-AFC substrate
# T1 sequence (P42574 29-175 limits assumed): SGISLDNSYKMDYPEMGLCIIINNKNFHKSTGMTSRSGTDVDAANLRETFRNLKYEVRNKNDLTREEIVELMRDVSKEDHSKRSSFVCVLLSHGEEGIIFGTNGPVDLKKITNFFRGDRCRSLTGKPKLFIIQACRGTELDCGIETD
# T1 sequence (P42574 176-277 limits assumed): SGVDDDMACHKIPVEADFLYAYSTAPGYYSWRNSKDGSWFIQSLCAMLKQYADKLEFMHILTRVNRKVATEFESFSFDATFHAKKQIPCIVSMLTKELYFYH
# Description: To test if compounds a, f, and g were specific caspase inhibitors, recombinant caspase-3 and caspase-9 were incubated with the three compounds and the enzymatic activities of caspases were monitored by analysing the cleavage of the caspase-3 substrate DEVD-AFC or the caspase-9 substrate LEHD-AFC, respectively.
smiles,measurement,setting,value
"O=C(Nc1cccc(C(F)(F)F)c1)Nc1cc(Cl)ccc1C(=O)O [Compound f, [N-(2-Carboxy-5-chlorophenyl)-N′-(3-trifluoromethylphenyl)]urea]",cell death induced by TNF,"[1]; 1 ng/ml TNF, 50 μM",completely blocked
same,protection against TNF-induced cell death,"[1]; 5 ng/ml TNF, 50 μM",protection was still significant
same,inhibition of TNF-induced cell death,[1]; 10 ng/ml TNF,no inhibition
same,TNF-induced DEVDase activity,[2],significantly reduced
same,cell death induced by TNF,"[3]; 1 ng/ml TNF, 50 μM",completely blocked
same,protection against TNF-induced cell death,"[3]; 5 ng/ml TNF, 50 μM",protection was still significant
same,inhibition of TNF-induced cell death,[3]; 10 ng/ml TNF,no inhibition
same,inhibition of the DEVDase activity (dose dependence),[4]; cell extracts stimulated with Cc/dATP,dose-dependent inhibition
same,% Inhibition,"[4]; compound final concentration 100 μM, 1 mM dATP and 1 μM cytochrome c, DEVD-AFC",94%
same,inhibition of recombinant caspase-3 activity,[5],failed to inhibit
